Literature values in patent US20220331342A1, “TREATMENT OF TRAUMATIC ENCEPHALOPATHY BY FIBROBLASTS AND THERAPEUTIC ADJUVANTS” (FIGENE, LLC, priority 2019, published 2022).

What was measured:
[1] = test system: mixed spinal cord (SC) cultures; conditions: excitotoxins
SOD1 mutant mice = conditions: single therapy

| SMILES | neuronal survival on treatment with MAPK inhibitors [1] | also measured |
| --- | --- | --- |
| CN(C)c1ccc(O)c2c1C[C@H]1C[C@H]3[C@H](N(C)C)C(O)=C(C(N)=O)C(=O)[C@@]3(O)C(O)=C1C2=O [Minocycline, minocycline] |  | first-pass metabolism when absorbed from the human gastrointestinal tract: substantial first-pass metabolism |
| COc1cccc(-c2cc(=O)c3ccccc3o2)c1N [PD98059] | not |  |
| Nc1nc2ccc(OC(F)(F)F)cc2s1 [Riluzole, riluzole] |  | onset of disease (SOD1 mutant mice): without affecting |
| C[S+]([O-])c1ccc(-c2nc(-c3ccncc3)c(-c3ccc(F)cc3)[nH]2)cc1 (stereo not shown) [SB203580] | increased neuronal survival |  |
